Columns and labels:
[1] = molecular target: T1, recombinant human Meningioma Expressed Antigen 5 (MGEA5), also referred to as O-GlcNAcase (OGA) (Homo sapiens, UniProt O60502); test: OGA biochemical assay (inhibition of FM-GlcNAc hydrolysis, fluorescence); conditions: FM-GlcNAc substrate; for IC50: read-out: Enzymatic hOGA, pIC50 (converted); for Emax: read-out: Enzymatic Emax (%)
T1 construct: Full length OGA enzyme was purchased at OriGene (cat #TP322411); purchased OriGene TP322411
T1 sequence (O60502 1-916): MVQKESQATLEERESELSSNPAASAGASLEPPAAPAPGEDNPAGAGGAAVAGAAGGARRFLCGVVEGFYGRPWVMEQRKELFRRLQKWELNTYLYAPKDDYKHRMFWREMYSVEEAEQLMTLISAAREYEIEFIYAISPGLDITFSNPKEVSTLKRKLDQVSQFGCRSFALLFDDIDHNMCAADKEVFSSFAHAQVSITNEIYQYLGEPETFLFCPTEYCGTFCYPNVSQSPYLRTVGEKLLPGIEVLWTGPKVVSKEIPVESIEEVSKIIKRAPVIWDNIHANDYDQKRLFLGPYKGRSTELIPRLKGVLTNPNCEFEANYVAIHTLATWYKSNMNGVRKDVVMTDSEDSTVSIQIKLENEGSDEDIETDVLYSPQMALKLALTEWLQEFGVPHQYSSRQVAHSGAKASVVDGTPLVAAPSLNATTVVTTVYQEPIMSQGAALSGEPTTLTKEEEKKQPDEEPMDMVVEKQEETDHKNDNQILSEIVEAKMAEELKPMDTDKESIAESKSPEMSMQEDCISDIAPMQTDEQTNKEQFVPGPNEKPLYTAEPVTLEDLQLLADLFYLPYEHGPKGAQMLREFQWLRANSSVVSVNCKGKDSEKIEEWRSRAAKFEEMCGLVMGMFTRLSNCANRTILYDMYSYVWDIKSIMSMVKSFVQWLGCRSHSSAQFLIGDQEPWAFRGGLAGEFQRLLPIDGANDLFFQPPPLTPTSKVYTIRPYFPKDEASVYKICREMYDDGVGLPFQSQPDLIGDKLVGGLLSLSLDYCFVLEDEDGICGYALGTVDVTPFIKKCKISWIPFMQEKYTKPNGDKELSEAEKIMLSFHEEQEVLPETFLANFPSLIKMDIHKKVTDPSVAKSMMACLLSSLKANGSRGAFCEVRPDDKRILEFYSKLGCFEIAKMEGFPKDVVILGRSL
Source text: The assay is based on the inhibition of the hydrolysis of fluorescein mono-β-D-N-Acetyl-Glucosamine (FM-GlcNAc) (Mariappa et al. 2015, Biochem J 470:255) by the recombinant human Meningioma Expressed Antigen 5 (MGEA5), also referred to as O-GlcNAcase (OGA). The hydrolysis FM-GlcNAc (Marker Gene technologies, cat #M1485) results in the formation of β-D-N-glucosamineacetate and fluorescein. The fluorescence of the latter can be measured at excitation wavelength 485 nm and emission wavelength 538 nm. An increase in enzyme activity results in an increase in fluorescence signal. Full length OGA enzyme was purchased at OriGene (cat #TP322411). The enzyme was stored in 25 mM Tris.HCl, pH 7.3, 100 mM glycine, 10% glycerol at −20° C. Thiamet G and GlcNAcStatin were tested as reference compounds (Yuzwa et al. 2008 Nature Chemical Biology 4:483; Yuzwa et al. 2012 Nature Chemical Biology 8:393). The assay was performed in 200 mM Citrate/phosphate buffer supplemented with 0.005% Tween-20. 35.6 g Na2HPO4 2H2O (Sigma, #C0759) were dissolved in 1 L water to obtain a 200 mM solution. 19.2 g citric acid (Merck, #1.06580) was dissolved in 1 L water to obtain a 100 mM solution. pH of the sodiumphosphate solution was adjusted with the citric acid solution to 7.2. The buffer to stop the reaction consists of a 500 mM Carbonate buffer, pH 11.0. 734 mg FM-GlcNAc were dissolved in 5.48 mL DMSO to obtain a 250 mM solution and was stored at −20° C. OGA was used at a 2 nM concentration and FM-GlcNAc at a 100 uM final concentration. Dilutions were prepared in assay buffer.
50 nl of a compound dissolved in DMSO was dispensed on Black Proxiplate™ 384 Plus Assay plates (Perkin Elmer, #6008269) and 3 μl fl-OGA enzyme mix added subsequently. Plates were pre-incubated for 60 min at room temperature and then 2 μl FM-GlcNAc substrate mix added. […] Plates were briefly centrifuged for 1 min at 1000 rpm and incubate at room temperature for 6 h. To stop the reaction 5 μl STOP buffer were added and plates centrifuge again 1 min at 1000 rpm. Fluorescence was quantified in the Thermo Scientific Fluoroskan Ascent or the PerkinElmer EnVision with excitation wavelength 485 nm and emission wavelength 538 nm.
For analysis a best-fit curve is fitted by a minimum sum of squares method. From this an IC50 value and Hill coefficient was obtained. High control (no inhibitor) and low control (saturating concentrations of standard inhibitor) were used to define the minimum and maximum values.

[2] = molecular target: T2, OGA (Homo sapiens, UniProt O60502); test: OGA cellular assay (ICC detection of O-GlcNAcylated proteins in HEK293 cells inducible for P301L mutant human Tau); type: cell-based; conditions: for Emax / Cellular Emax (%): maximum = Thiamet G 200 uM; for EC50: 6 hours incubation, read-out: Cellular hOGA, pEC50 (converted)
T2 construct: HEK293 cells inducible for P301L mutant human Tau (isoform 2N4R) were established at Janssen; endogenous in cells; host or cells: HEK293 cells inducible for P301L mutant human Tau (2N4R)
T2 sequence (O60502 1-916): T1 sequence (O60502 1-916)
Protocol: HEK293 cells inducible for P301L mutant human Tau (isoform 2N4R) were established at Janssen. Thiamet-G was used for both plate validation (high control) and as reference compound (reference EC50 assay validation). OGA inhibition is evaluated through the immunocytochemical (ICC) detection of O-GlcNAcylated proteins by the use of a monoclonal antibody (CTD110.6; Cell Signaling, #9875) detecting 0-GlcNAcylated residues as previously described (Dorfmueller et al. 2010 Chemistry & biology, 17:1250). Inhibition of OGA will result in an increase of O-GlcNAcylated protein levels resulting in an increased signal in the experiment. Cell nuclei are stained with Hoechst to give a cell culture quality control and a rough estimate of immediate compounds toxicity, if any. ICC pictures are imaged with a Perkin Elmer Opera Phenix plate microscope and quantified with the provided software Perkin Elmer Harmony 4.1.
Cells were propagated in DMEM high Glucose (Sigma, #D5796) following standard procedures. 2 days before the cell assay cells are split, counted and seeded in Poly-D-Lysine (PDL) coated 96-wells (Greiner, #655946) plate at a cell density of 12,000 cells per cm^2 (4,000 cells per well) in 100 μl of Assay Medium (Low Glucose medium is used to reduce basal levels of GlcNAcylation) (Park et al. 2014 The Journal of biological chemistry 289:13519). At the day of compound test medium from assay plates was removed and replenished with 90 μl of fresh Assay Medium. 10 μl of compounds at a 10fold final concentration were added to the wells. Plates were centrifuged shortly before incubation in the cell incubator for 6 hours. DMSO concentration was set to 0.2%. Medium is discarded by applying vacuum. For staining of cells medium was removed and cells washed once with 100 μl D-PBS (Sigma, #D8537). From next step onwards unless other stated assay volume was always 50 μl and incubation was performed without agitation and at room temperature. Cells were fixed in 50 μl of a 4% paraformaldehyde (PFA, Alpha aesar, #043368) PBS solution for 15 minutes at room temperature. […] Before analysis samples were washed 2 times manually for 5 minutes in ICC base buffer.
Imaging is performed using Perkin Elmer Phenix Opera using a water 20× objective and recording 9 fields per well. Intensity readout at 488 nm is used as a measure of O-GlcNAcylation level of total proteins in wells. To assess potential toxicity of compounds nuclei were counted using the Hoechst staining. IC50-values are calculated using parametric non-linear regression model fitting. As a maximum inhibition Thiamet G at a 200 uM concentration is present on each plate. In addition, a concentration response of Thiamet G is calculated on each plate.

[3] = HEK293, HEK293 cells inducible for P301L mutant human Tau
[4] = HEK293 cells inducible for P301L mutant human Tau

IC50 ([1]; 6 h at room temperature)	Emax ([1]; maximal effect)	Emax [2, 3]	EC50 [2, 4]	Cellular Emax (%) [2, 4]	Enzymatic hOGA; pIC50 ([1]; 6 h at room temperature)	Enzymatic Emax (%) ([1]; maximal effect)	Structure (SMILES)	Emax [2, 4]
12.6 nM	99%	49%	794 nM				Cc1cc(OC2CCCN(C(C)c3ccc4sc(C)nc4n3)C2)cc(C)n1 (centres unmarked) [Compound 40]	
501 nM	99%		> 1000 nM				Cc1cc(C[C@H]2CCCN(C(C)c3ccc4nc(C)sc4c3)C2)cc(C)n1 (mixture of isomers) [Compound 51]	
15.8 nM	101%	86%	200 nM				Cc1cc(C[C@H]2CCCN(C(C)c3ccc4oc(C)nc4n3)C2)cc(OC(F)(F)F)n1 (mixture of isomers) [Compound 25ab]	
3.16 nM	92%		39.8 nM	91%			Cc1cc(C[C@@H]2CCN(C(C)c3nc4nc(C)sc4cc3F)C2)cc(C)n1 (single isomer, unassigned) [Compound 93]	
12.6 nM	103%	91%	50.1 nM				Cc1cc(C[C@H]2CCCN(C(C)c3ccc4oc(C)nc4n3)C2)cc(C(F)(F)F)n1 (mixture of isomers) [Compound 24ab]	
3.98 nM	101%	85%	50.1 nM				Cc1cc(C[C@H]2CCCN([C@H](C)c3ccc4oc(C)nc4n3)C2)cc(OC(F)(F)F)n1 [Compound 25a]	
6.31 nM	100%	89%	10 nM				COc1cc(NC[C@H]2CCCN(C(C)c3ccc4sc(C)nc4n3)C2)cc(C)n1 (some centres unmarked) [Compound 109]	
> 10000 nM	30%	-7%	> 1000 nM				Cc1cc(C[C@@H]2CCN(C(C)c3ccc4oc(C(C)C)nc4n3)C2)cc(C)n1 (mixture of isomers) [Compound 31]	
20 nM	99%	68%	501 nM				Cc1cc(C2CCCN(C(C)c3ccc4oc(C)nc4n3)C2)cc(C(F)(F)F)n1 (racemic) [Compound 19]	
10 nM	100%	67%	158 nM				COc1cc(OC[C@H]2CCCN(C(C)c3ccc4sc(C)nc4n3)C2)cc(C)n1 (mixture of isomers) [Compound 54]	
6.31 nM	99%	70%	31.6 nM				Cc1cc(OC[C@H]2CCCN([C@H](C)c3ccc4sc(C)nc4n3)C2)nc(C)n1 [Compound 49b]	
53.7 nM	103%	60%	631 nM				Cc1cc(C[C@@H]2CCN(C(C)c3ccc4sc(C)nc4n3)C2)cc(C)n1 (mixture of isomers) [Compound 43]	
10 nM	96%	78%	102 nM				COc1cc(N[C@H]2CCCN(C(C)c3ccc4sc(C)nc4n3)C2)cc(C)n1 (some centres unmarked) [Compound 83]	
2000 nM	86%	-1%	> 1000 nM				Cc1cc([C@H]2CCCN([C@H](C)c3ccc4sc(C)nc4n3)C2)cc(C)n1 (racemic) [Compound 75]	
2.51 nM	102%	60%	12.6 nM				Cc1cc(OC[C@H]2CCCN(C(C)c3cc4nc(C)sc4cc3F)C2)cc(C)n1 (some centres unmarked) [Compound 98]	
			31.6 nM	84%	8.2	101%	Cc1cc(C2CCCN(C(C)c3cc4nc(C)sc4cc3F)C2)cc(C)n1 (centres unmarked) [Compound 90]	
6.31 nM	102%	64%	15.8 nM				Cc1cc(C2CCCN(C(C)c3cc4nc(C)sc4cc3F)C2)cc(C)n1 (centres unmarked) [Compound 89]	
1260 nM	92%		> 1000 nM	−6%			Cc1cc(CO[C@H]2CCCN(C(C)c3cc4nc(C)sc4cc3F)C2)cc(C)n1 (single isomer, unassigned) [Compound 100]	
3.98 nM	100%	75%	10 nM				Cc1cc([C@H]2CCCN(C(C)c3nc4nc(C)sc4cc3F)C2)cc(C)n1 (single isomer, unassigned) [Compound 85]	
3.16 nM	99%	66%	251 nM				Cc1cc(O[C@@H]2CCN(C(C)c3cc4nc(C)sc4cc3F)C2)cc(C)n1 (some centres unmarked) [Compound 88]	

Structure (SMILES)	IC50 ([1]; 6 h at room temperature)	Emax ([1]; maximal effect)	Emax [2, 3]	EC50 [2, 4]	Cellular Emax (%) [2, 4]	Enzymatic hOGA; pIC50 ([1]; 6 h at room temperature)	Enzymatic Emax (%) ([1]; maximal effect)	Emax [2, 4]
Cc1cc(C[C@H]2CCCN(C(C)c3ccc4cn(C)nc4c3)C2)cc(C)n1 (mixture of isomers) [Compound 16]	126 nM	97%		> 1000 nM				14%

From patent US20210115040A1, “OGA INHIBITOR COMPOUNDS” (Janssen Pharmaceutica NV, priority 2018, published 2021)
